pIC50: −log10 of the molar value.
Legend:
human eIF4E protein = target: T1, human eIF4E protein (Homo sapiens, UniProt P06730); assay: Biochemical competitive binding assay (TR-FRET competition, EDA-m7GDP-ATTO-647N probe); details: read-out: hEIF4E TR-FRET IC50
T1 construct: purchased Novus NBP-45314
Procedure, shortened: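 IC50 values come from 4-parameter fits of the normalized 665/620 nm TR-FRET ratio. Compound was first incubated 15 min with 4 nM recombinant His-eIF4E bound to 2.5 nM Eu-anti-His antibody, then 15 min with 5 nM m7GDP-ATTO-647N tracer, in pH 7.5 HEPES buffer with 100 mM KCl, Tween-20 and BSA.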

[1] = system: COLO 205 colorectal tumor cells; assay: Tumor cell viability inhibition assay (CellTiter-Glo 2.0, 72 hours); format: cell-based; details: COLO 205 cell viability
Procedure, shortened: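 IC50 derived by 4-parameter fitting after normalizing luminescence to DMSO and max-inhibition wells. Compounds tested as 11 concentrations in 4-fold steps on COLO 205 cells seeded at 1500 per well in RPMI-1640/10% FBS; ATP content measured with CellTiter-Glo 2.0 after 72 h.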

T1 sequence (P06730 whole entry): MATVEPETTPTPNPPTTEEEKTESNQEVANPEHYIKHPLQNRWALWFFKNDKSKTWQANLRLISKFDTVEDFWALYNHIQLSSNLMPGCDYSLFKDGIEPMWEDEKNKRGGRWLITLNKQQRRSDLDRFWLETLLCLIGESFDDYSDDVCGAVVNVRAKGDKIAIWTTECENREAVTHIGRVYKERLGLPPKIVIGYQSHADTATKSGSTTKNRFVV

Row | SMILES | pIC50 (human eIF4E protein) | pIC50 ([1]; Homo sapiens, COLO 205, 72 h) | pIC50 [1]
1 | Cc1cc(-c2cc(Cl)ccc2OCCn2c(C)nc3c(c2=O)C[C@H](N2CCC(c4cnc(C(F)(F)F)nc4)CC2)CC3)c2scc(C(=O)O)c2n1 (single isomer, unassigned) [Compound 584] | > 7.00 | 4.70 to 5.30 | 
2 | Cc1cc(-c2cc(Cl)ccc2OCCn2c(C)nc3c(c2=O)C[C@H](N2CCC(OC(F)F)CC2)CC3)c2scc(C(=O)O)c2n1 (single isomer, unassigned) [Compound 385] | > 7.00 | > 5.30 | 
3 | Cc1cc(-c2cc(Cl)ccc2OCCn2c(C)nc3c(c2=O)C[C@H](N2CCO[C@H](CC(F)(F)F)C2)CC3)c2scc(C(=O)O)c2n1 (single isomer, unassigned) [Compound 525] | > 7.00 | > 5.30 | 
4 | Cc1cc(-c2cc(Cl)ccc2OCCn2c(C)nc3c(c2=O)C[C@@H](N2CC[C@H](OC(F)(F)F)C2)CC3)c2scc(C(=O)O)c2n1 (single isomer, unassigned) [Compound 388] | > 7.00 | > 5.30 | 
5 | COC1CCN(C2CCc3nc(C)n(CC#Cc4ccc(Cl)cc4-c4ccnc5c(C(=O)O)csc45)c(=O)c3C2)CC1 (single isomer, unassigned) [Compound 410] | > 7.00 |  | 4.70 to 5.30
6 | CO[C@@H]1CCN([C@@H]2CCc3nc(C)n(CCOc4ccc(Cl)cc4-c4cc(C)nc5c(C(=O)O)csc45)c(=O)c3C2)C[C@@H]1F (single isomer, unassigned) [Compound 366] | > 7.00 | 4.70 to 5.30 | 
7 | Cc1cc(-c2cc(Cl)ccc2OCCn2c(C)nc3c(c2=O)C[C@@H](N2CCC[C@H](C(F)F)C2)CC3)c2scc(C(=O)O)c2n1 (single isomer, unassigned) [Compound 101] | > 7.00 | > 5.30 | 
8 | Cc1cc(-c2cc(Cl)ccc2OCCn2c(C)nc3c(c2=O)CC(N2CCC(OC(F)(F)F)CC2)CC3)c2scc(C(=O)NS(=O)(=O)C3CC3)c2n1 (single isomer, unassigned) [Compound 417] | > 7.00 | > 5.30 | 
9 | Cc1cc(-c2cc(Cl)ccc2OCCn2c(C)nc3c(c2=O)CC(C)(N2CCC(OC(F)(F)F)CC2)CC3)c2scc(C(=O)O)c2n1 (centres unmarked) [Compound 536] | > 7.00 | > 5.30 | 
10 | Cc1cc(-c2cc(Cl)ccc2OCCn2c(C)nc3c(c2=O)C[C@H](N2CCC[C@H](C(F)F)C2)CC32CC2)c2scc(C(=O)O)c2n1 (single isomer, unassigned) [Compound 617] | > 7.00 | > 5.30 | 
11 | Cc1cc(-c2cc(Cl)ccc2OCCn2c(C)nc3c(c2=O)C[C@H](N2CCC[C@@]4(CN(CC(F)(F)F)CC4(F)F)C2)CC3)c2scc(C(=O)O)c2n1 (single isomer, unassigned) [Compound 513] | > 7.00 | > 5.30 | 
12 | Cc1cc(-c2cc(Cl)ccc2OCCn2c(C)nc3c(c2=O)C[C@H](N2CCC(c4ncccc4F)CC2)CC3)c2scc(C(=O)O)c2n1 (single isomer, unassigned) [Compound 444] | > 7.00 | > 5.30 | 
13 | CO[C@@H]1CCN([C@@H]2CCc3nc(C)n(CCOc4ccc(Cl)cc4-c4cc(C)nc5c(C(=O)O)csc45)c(=O)c3C2)CC1(C)C (single isomer, unassigned) [Compound 376] | > 7.00 | > 5.30 | 
14 | Cc1cc(-c2cc(Cl)ccc2OCCn2c(C)nc3c(c2=O)CC(N2CC4(CCC(F)(F)CC4)C2)CC3)c2scc(C(=O)NS(C)(=O)=O)c2n1 (single isomer, unassigned) [Compound 364] | > 7.00 |  | > 5.30
15 | Cc1cc(-c2cc(Cl)ccc2OCCn2c(C)nc3c(c2=O)C[C@H](N2CCC(OC(F)(F)F)CC2)[C@@H]2C[C@H]32)c2scc(C(=O)O)c2n1 (single isomer, unassigned) [Compound 597] | > 7.00 | > 5.30 | 
16 | Cc1cc(-c2cc(Cl)ccc2OCCn2c(C)nc3c(c2=O)CC(N2CCC(C(F)(F)F)CC2)CC3)c2scc(C(=O)NS(C)(=O)=O)c2n1 (single isomer, unassigned) [Compound 432] | > 7.00 | > 5.30 | 
17 | Cc1cc(-c2cc(Cl)ccc2OCCn2c(C)nc3c(c2=O)C[C@@H](N2CCCC[C@H]2c2cccc(F)c2)CC3)c2scc(C(=O)O)c2n1 (single isomer, unassigned) [Compound 542] | > 7.00 | > 5.30 | 
18 | Cc1cc(-c2ccc(Cl)cc2OCCn2c(C)nc3c(c2=O)C[C@@H](N(C)[C@H]2C[C@@](C)(O)C2)CC3)c2scc(C(=O)O)c2n1 (single isomer, unassigned) [Compound 228] | > 7.00 | < 4.70 | 
19 | Cc1cc(-c2cc(Cl)ccc2OCCn2c(C)nc3c(c2=O)CC(C)(N2CCC4(CC2)CC4(F)F)CC3)c2scc(C(=O)O)c2n1 (single isomer, unassigned) [Compound 557] | > 7.00 |  | > 5.30

Row | SMILES | pIC50 (human eIF4E protein) | pIC50 ([1]; Homo sapiens, COLO 205, 72 h) | pIC50 [1]
20 | Cc1cc(-c2cc(Cl)ccc2OCCn2c(C(F)(F)F)nc3c(c2=O)CC(N2CCC(OC(F)(F)F)CC2)CC3)c2scc(C(=O)O)c2n1 (single isomer, unassigned) [Compound 627] | 5.30 to 6.30 | < 4.70 | 
21 | Cc1cc(-c2cc(Cl)ccc2OCCn2c(C)nc3c(c2=O)C[C@H](N2CCC(c4cncc(S(=O)(=O)NC(C)(C)C)c4)CC2)CC3)c2scc(C(=O)O)c2n1 (single isomer, unassigned) [Compound 455] | > 7.00 | > 5.30 | 
22 | Cc1cc(-c2cc(Cl)ccc2OCCn2c(C)nc3c(c2=O)C[C@@H](N2CCC[C@@H](c4ncccc4F)C2)CC3)c2scc(C(=O)O)c2n1 (single isomer, unassigned) [Compound 466] | > 7.00 | > 5.30 | 
23 | Cc1cc(-c2cc(Cl)ccc2OCCn2c(C)nc3c(c2=O)C[C@H](N2CCCC[C@H]2c2cccc(F)c2)CC32CC2)c2scc(C(=O)O)c2n1 (single isomer, unassigned) [Compound 626, 7-(5-chloro-2-(2-(6′-(2-(3-fluorophenyl)piperidin-1-yl)-2′-methyl-4′-oxo-6′,7′-dihydro-4′H-spiro[cyclopropane-1,8′-quinazolin]-3′(5′H)-yl)ethoxy)phenyl)-5-methylthieno[3,2-b]pyridine-3-carboxylic acid] | > 7.00 | 4.70 to 5.30 | 
24 | Cc1cc(-c2cc(Cl)ccc2OCCn2c(C)nc3c(c2=O)C[C@@H](N(C)CC2CC(F)(F)C2)CC32CC2)c2scc(C(=O)O)c2n1 (single isomer, unassigned) [Compound 569] | > 7.00 | > 5.30 | 
25 | Cc1cc(-c2cc(Cl)ccc2OCCn2c(C)nc3c(c2=O)C[C@@H](N2CC[C@@H](OC(F)(F)F)C2)CC3)c2scc(C(=O)O)c2n1 (single isomer, unassigned) [Compound 389] | > 7.00 | > 5.30 | 
26 | Cc1cc(-c2cc(Cl)ccc2OCCn2c(C)nc3c(c2=O)C[C@@H](N2CCCC[C@@H]2C)CC3)c2scc(C(=O)O)c2n1 (single isomer, unassigned) [Compound 409] | > 7.00 | < 4.70 | 
27 | Cc1cc(-c2cc(Cl)ccc2OCCn2c(C)nc3c(c2=O)C[C@@H](N2CCC[C@H](c4ccn(C)n4)C2)CC3)c2scc(C(=O)O)c2n1 (single isomer, unassigned) [Compound 448] | > 7.00 | > 5.30 | 
28 | Cc1cc(-c2cc(Cl)ccc2OCCn2c(C)nc3c(c2=O)C[C@@H](N2CCCCC(F)(F)C2)CC3)c2scc(C(=O)O)c2n1 (single isomer, unassigned) [Compound 470] | > 7.00 | > 5.30 | 
29 | Cc1cc(-c2cc(Cl)ccc2OCCn2c(C)nc3c(c2=O)C[C@H](N2CCO[C@@H](CC(F)(F)F)C2)CC3)c2scc(C(=O)O)c2n1 (single isomer, unassigned) [Compound 523] | > 7.00 | > 5.30 | 
30 | [2H]C1(N2CCC(OC(F)(F)F)CC2)CCc2nc(C)n(CCOc3ccc(Cl)cc3-c3cc(C)nc4c(C(=O)O)csc34)c(=O)c2C1 (single isomer, unassigned) [Compound 370] | > 7.00 |  | > 5.30
31 | Cc1cc(-c2cc(Cl)ccc2OCCn2c(C)nc3c(c2=O)CC(N2CC4CC(C2)C4(F)F)CC3)c2scc(C(=O)O)c2n1 (single isomer, unassigned) [Compound 361] | > 7.00 | > 5.30 | 
32 | Cc1cc(-c2cc(Cl)ccc2OCCn2c(C)nc3c(c2=O)C[C@@H](N2C[C@@H]4CC[C@H]2CC4OC(F)(F)F)CC32CC2)c2scc(C(=O)O)c2n1 (single isomer, unassigned) [Compound 605] | > 7.00 | > 5.30 | 
33 | Cc1cc(-c2cc(Cl)ccc2OCCn2c(C)nc3c(c2=O)C[C@H](N2CCCC(F)(F)CC2)CC3)c2scc(C(=O)O)c2n1 (single isomer, unassigned) [Compound 401] | > 7.00 | > 5.30 | 
34 | COC1CCN(C2CCc3nc(C)n(CC#Cc4ccc(Cl)cc4-c4ccnc5c(C(=O)NS(C)(=O)=O)csc45)c(=O)c3C2)CC1 (single isomer, unassigned) [Compound 491] | > 7.00 |  | > 5.30
35 | CO[C@H]1CCN([C@H]2CCc3nc(C)n(CCOc4ccc(Cl)cc4-c4cc(C)nc5c(C(=O)O)csc45)c(=O)c3C2)CC12CC2 (single isomer, unassigned) [Compound 522] | > 7.00 | > 5.30 | 
36 | Cc1cc(-c2cc(Cl)ccc2OCCn2c(C)nc3c(c2=O)C[C@H](N2CCCC[C@H]2c2cccc(F)c2)CC3)c2scc(C(=O)O)c2n1 (single isomer, unassigned) [Compound 540] | > 7.00 | > 5.30 | 
37 | Cc1cc(-c2cc(Cl)ccc2OCCn2c(C)nc3c(c2=O)CC(N2CCc4nc[nH]c4C2)CC3)c2scc(C(=O)O)c2n1 (centres unmarked) [Compound 155] | > 7.00 | < 4.70 | 
